Blank lines part the entries; values can stand above or below the compound they belong to.
Experiments:
[1] = In vivo biodistribution and pharmacokinetics in tumor free mice (gamma counter); conditions: for Biodistribution, comparison of the two probes: FIG. 17B; for Clearance (time course of activity in vital tissues and blood): comparison of the two probes
Method: The in vivo biodistribution and pharmacokinetics of ([^177Lu]-Compound 6) and BnDOTA[^177Lu] was investigated in tumor free mice. See FIGS. 17A-17B and Tables 2 and 3. Mice were dosed with radiolabeled probes at t=0 and sacrificed at various time points. Organs were harvested and activity was counted by gamma counter. Tables 2-3 show the serial biodistribution data for the analyzed organs of Compound 6 and Compound 2, respectively. FIG. 17A overlays the time course in activity in either vital tissues (left panel) or the blood (right panel) between the two probes.

[2] = system: SW-1222 tumor; test: In vivo tumor uptake using 3-step PRIT; set-up: species or system mice; conditions: for Tumor Uptake: SW-1222 tumor-bearing mice pretreated with anti-GPA33/anti-DOTA BsAb and DOTA-dendrimer clearing agent, in %ID/g
Method: The in vivo tumor uptake of [F]Cy3D [^177Lu] ([^177Lu]-Compound 6) was analyzed in tumor-bearing (SW-1222) mice.

[3] = Lg. Intestine, 1 h after dosing
[4] = Lg. Intestine, 2 h after dosing
[5] = Lg. Intestine, 4 h after dosing
[6] = Lg. Intestine, 24 h after dosing
[7] = Lg. Intestine, 48 h after dosing
[8] = Sm. Intestine, 1 h after dosing
[9] = Sm. Intestine, 2 h after dosing
[10] = Sm. Intestine, 4 h after dosing
[11] = Sm. Intestine, 24 h after dosing
[12] = Sm. Intestine, 48 h after dosing

- Uptake ([1]; Blood, 1 h after dosing): 0.122 ± 0.005 % injected Dose/gram
- Uptake ([1]; Blood, 2 h after dosing): 0.034 ± 0.005 % injected Dose/gram
- Uptake ([1]; Blood, 4 h after dosing): 0.014 ± 0.001 % injected Dose/gram
- Uptake ([1]; Blood, 24 h after dosing): 0.004 ± 0.002 % injected Dose/gram
- Uptake ([1]; Blood, 48 h after dosing): 0.003 ± 0 % injected Dose/gram
- Uptake ([1]; Bone, 1 h after dosing): 0.065 ± 0.009 % injected Dose/gram
- Uptake ([1]; Bone, 2 h after dosing): 0.043 ± 0.007 % injected Dose/gram
- Uptake ([1]; Bone, 4 h after dosing): 0.038 ± 0.012 % injected Dose/gram
- Uptake ([1]; Bone, 24 h after dosing): 0.019 ± 0.003 % injected Dose/gram
- Uptake ([1]; Bone, 48 h after dosing): 0.021 ± 0.001 % injected Dose/gram
- Uptake ([1]; Brain, 1 h after dosing): 0.007 ± 0.001 % injected Dose/gram
- Uptake ([1]; Brain, 2 h after dosing): 0.014 ± 0.01 % injected Dose/gram
- Uptake ([1]; Brain, 4 h after dosing): 0.004 ± 0 % injected Dose/gram
- Uptake ([1]; Brain, 24 h after dosing): 0.001 ± 0.001 % injected Dose/gram
- Uptake ([1]; Brain, 48 h after dosing): 0.001 ± 0 % injected Dose/gram
- Biodistribution, comparison of the two probes [1]: comparable biodistribution
- Uptake ([1]; Heart, 1 h after dosing): 0.056 ± 0.006 % injected Dose/gram
- Uptake ([1]; Heart, 2 h after dosing): 0.027 ± 0.004 % injected Dose/gram
- Uptake ([1]; Heart, 4 h after dosing): 0.017 ± 0 % injected Dose/gram
- Uptake ([1]; Heart, 24 h after dosing): 0.008 ± 0.006 % injected Dose/gram
- Uptake ([1]; Heart, 48 h after dosing): 0.009 ± 0 % injected Dose/gram
- Uptake ([1]; Kidneys, 1 h after dosing): 1.021 ± 0.096 % injected Dose/gram
- Uptake ([1]; Kidneys, 2 h after dosing): 1.147 ± 0.184 % injected Dose/gram
- Uptake ([1]; Kidneys, 4 h after dosing): 0.989 ± 0.1 % injected Dose/gram
- Uptake ([1]; Kidneys, 24 h after dosing): 0.66 ± 0.07 % injected Dose/gram
- Uptake ([1]; Kidneys, 48 h after dosing): 0.5 ± 0.05 % injected Dose/gram
- Uptake [1, 3]: 0.046 ± 0.009 % injected Dose/gram
- Uptake [1, 4]: 2.577 ± 0.409 % injected Dose/gram
- Uptake [1, 5]: 2.356 ± 1.032 % injected Dose/gram
- Uptake [1, 6]: 0.047 ± 0.016 % injected Dose/gram
- Uptake [1, 7]: 0.035 ± 0.021 % injected Dose/gram
- Uptake ([1]; Liver, 1 h after dosing): 0.119 ± 0.015 % injected Dose/gram
- Uptake ([1]; Liver, 2 h after dosing): 0.12 ± 0.025 % injected Dose/gram
- Uptake ([1]; Liver, 4 h after dosing): 0.088 ± 0.009 % injected Dose/gram
- Uptake ([1]; Liver, 24 h after dosing): 0.063 ± 0.007 % injected Dose/gram
- Uptake ([1]; Liver, 48 h after dosing): 0.052 ± 0.007 % injected Dose/gram
- Uptake ([1]; Lungs, 1 h after dosing): 0.142 ± 0.017 % injected Dose/gram
- Uptake ([1]; Lungs, 2 h after dosing): 0.071 ± 0.01 % injected Dose/gram
- Uptake ([1]; Lungs, 4 h after dosing): 0.041 ± 0.004 % injected Dose/gram
- Uptake ([1]; Lungs, 24 h after dosing): 0.023 ± 0.005 % injected Dose/gram
- Uptake ([1]; Lungs, 48 h after dosing): 0.017 ± 0.001 % injected Dose/gram
- Uptake ([1]; Muscle, 1 h after dosing): 0.04 ± 0.009 % injected Dose/gram
- Uptake ([1]; Muscle, 2 h after dosing): 0.032 ± 0.014 % injected Dose/gram
- Uptake ([1]; Muscle, 4 h after dosing): 0.023 ± 0.013 % injected Dose/gram
- Uptake ([1]; Muscle, 24 h after dosing): 0.008 ± 0.003 % injected Dose/gram
- Uptake ([1]; Muscle, 48 h after dosing): 0.007 ± 0 % injected Dose/gram
- Uptake [1, 8]: 0.914 ± 0.311 % injected Dose/gram
- Uptake [1, 9]: 0.958 ± 0.379 % injected Dose/gram
- Uptake [1, 10]: 0.169 ± 0.258 % injected Dose/gram
- Uptake [1, 11]: 0.022 ± 0.007 % injected Dose/gram
- Uptake [1, 12]: 0.016 ± 0.003 % injected Dose/gram
- Uptake ([1]; Spleen, 1 h after dosing): 0.06 ± 0.008 % injected Dose/gram
- Uptake ([1]; Spleen, 2 h after dosing): 0.048 ± 0.021 % injected Dose/gram
- Uptake ([1]; Spleen, 4 h after dosing): 0.032 ± 0.004 % injected Dose/gram
- Uptake ([1]; Spleen, 24 h after dosing): 0.029 ± 0.002 % injected Dose/gram
- Uptake ([1]; Spleen, 48 h after dosing): 0.022 ± 0.001 % injected Dose/gram
- Uptake ([1]; Stomach, 1 h after dosing): 0.734 ± 1.363 % injected Dose/gram
- Uptake ([1]; Stomach, 2 h after dosing): 0.985 ± 0.861 % injected Dose/gram
- Uptake ([1]; Stomach, 4 h after dosing): 0.186 ± 0.256 % injected Dose/gram
- Uptake ([1]; Stomach, 24 h after dosing): 0.02 ± 0.011 % injected Dose/gram
- Uptake ([1]; Stomach, 48 h after dosing): 0.019 ± 0 % injected Dose/gram
- Uptake ([1]; Tail, 1 h after dosing): 0.279 ± 0.079 % injected Dose/gram
- Uptake ([1]; Tail, 2 h after dosing): 0.237 ± 0.128 % injected Dose/gram
- Uptake ([1]; Tail, 4 h after dosing): 0.154 ± 0.102 % injected Dose/gram
- Uptake ([1]; Tail, 24 h after dosing): 0.079 ± 0.026 % injected Dose/gram
- Uptake ([1]; Tail, 48 h after dosing): 0.018 ± 0.016 % injected Dose/gram
- Clearance (time course of activity in vital tissues and blood) [1]: cleared at similar rates
- Tumor Uptake ([2]; 1 h): 25.24 ± 4.49
- Tumor Uptake ([2]; 4 h): 21.93 ± 2.25
- Tumor Uptake ([2]; 24 h): 23.17 ± 4.83
- Tumor Uptake ([2]; 48 h): 22.13 ± 5.37
Compound: CC1(C)C(=CC=CC2=[N+](CCCCCC(=O)NCC[N+](C)(C)C[B-](F)(F)F)c3ccc(S(=O)(=O)[O-])cc3C2(C)C)N(CCCCCC(=O)Nc2ccc(CC3CN(CC(=O)[O-])CCN(CC(=O)[O-])CCN(CC(=O)[O-])CCN3CC(=O)[O-])cc2)c2ccc(S(=O)(=O)[O-])cc21.[177Lu+3] (stereo not shown) [[^177Lu]-Compound 6, [F]Cy3D[^177Lu]]
- Binding to BsAb-treated tumor in vivo compared to the standard BnDOTA[^177Lu] ([2]; SW-1222 tumor-bearing mice, 3-step PRIT): equal specificity and efficacy

- Uptake ([1]; Blood, 1 h after dosing): 0.068 ± 0.029 % injected Dose/gram
- Uptake ([1]; Blood, 2 h after dosing): 0.013 ± 0.005 % injected Dose/gram
- Uptake ([1]; Blood, 4 h after dosing): 0.001 ± 0 % injected Dose/gram
- Uptake ([1]; Blood, 24 h after dosing): 0.001 ± 0 % injected Dose/gram
- Uptake ([1]; Blood, 48 h after dosing): 0.001 ± 0.001 % injected Dose/gram
- Uptake ([1]; Bone, 1 h after dosing): 0.04 ± 0.012 % injected Dose/gram
- Uptake ([1]; Bone, 2 h after dosing): 0.325 ± 0.276 % injected Dose/gram
- Uptake ([1]; Bone, 4 h after dosing): 0.015 ± 0.013 % injected Dose/gram
- Uptake ([1]; Bone, 24 h after dosing): 0.01 ± 0.008 % injected Dose/gram
- Uptake ([1]; Bone, 48 h after dosing): 0.018 ± 0.028 % injected Dose/gram
- Uptake ([1]; Brain, 1 h after dosing): 0.015 ± 0.006 % injected Dose/gram
- Uptake ([1]; Brain, 2 h after dosing): 0.025 ± 0.01 % injected Dose/gram
- Uptake ([1]; Brain, 4 h after dosing): 0.01 ± 0 % injected Dose/gram
- Uptake ([1]; Brain, 24 h after dosing): 0.001 ± 0 % injected Dose/gram
- Uptake ([1]; Brain, 48 h after dosing): 0.001 ± 0.001 % injected Dose/gram
- Biodistribution, comparison of the two probes [1]: comparable biodistribution
- Uptake ([1]; Heart, 1 h after dosing): 0.033 ± 0.013 % injected Dose/gram
- Uptake ([1]; Heart, 2 h after dosing): 0.023 ± 0.005 % injected Dose/gram
- Uptake ([1]; Heart, 4 h after dosing): 0.01 ± 0 % injected Dose/gram
- Uptake ([1]; Heart, 24 h after dosing): 0.01 ± 0 % injected Dose/gram
- Uptake ([1]; Heart, 48 h after dosing): 0.016 ± 0.03 % injected Dose/gram
- Uptake ([1]; Kidneys, 1 h after dosing): 0.86 ± 0.177 % injected Dose/gram
- Uptake ([1]; Kidneys, 2 h after dosing): 0.8 ± 0.065 % injected Dose/gram
- Uptake ([1]; Kidneys, 4 h after dosing): 0.695 ± 0.106 % injected Dose/gram
- Uptake ([1]; Kidneys, 24 h after dosing): 0.448 ± 0.109 % injected Dose/gram
- Uptake ([1]; Kidneys, 48 h after dosing): 0.233 ± 0.153 % injected Dose/gram
- Uptake [1, 3]: 0.088 ± 0.083 % injected Dose/gram
- Uptake [1, 4]: 2.878 ± 2.718 % injected Dose/gram
- Uptake [1, 5]: 1.865 ± 0.963 % injected Dose/gram
- Uptake [1, 6]: 0.02 ± 0 % injected Dose/gram
- Uptake [1, 7]: 0.018 ± 0.013 % injected Dose/gram
- Uptake ([1]; Liver, 1 h after dosing): 0.658 ± 0.074 % injected Dose/gram
- Uptake ([1]; Liver, 2 h after dosing): 0.358 ± 0.083 % injected Dose/gram
- Uptake ([1]; Liver, 4 h after dosing): 0.065 ± 0.024 % injected Dose/gram
- Uptake ([1]; Liver, 24 h after dosing): 0.028 ± 0.01 % injected Dose/gram
- Uptake ([1]; Liver, 48 h after dosing): 0.018 ± 0.012 % injected Dose/gram
- Uptake ([1]; Lungs, 1 h after dosing): 0.083 ± 0.032 % injected Dose/gram
- Uptake ([1]; Lungs, 2 h after dosing): 0.048 ± 0.005 % injected Dose/gram
- Uptake ([1]; Lungs, 4 h after dosing): 0.023 ± 0.005 % injected Dose/gram
- Uptake ([1]; Lungs, 24 h after dosing): 0.013 ± 0.005 % injected Dose/gram
- Uptake ([1]; Lungs, 48 h after dosing): 0.01 ± 0 % injected Dose/gram
- Uptake ([1]; Muscle, 1 h after dosing): 0.028 ± 0.01 % injected Dose/gram
- Uptake ([1]; Muscle, 2 h after dosing): 0.043 ± 0.013 % injected Dose/gram
- Uptake ([1]; Muscle, 4 h after dosing): 0.013 ± 0.005 % injected Dose/gram
- Uptake ([1]; Muscle, 24 h after dosing): 0.003 ± 0.005 % injected Dose/gram
- Uptake ([1]; Muscle, 48 h after dosing): 0.051 ± 0.1 % injected Dose/gram
- Uptake [1, 8]: 1.493 ± 0.554 % injected Dose/gram
- Uptake [1, 9]: 0.86 ± 0.389 % injected Dose/gram
- Uptake [1, 10]: 0.128 ± 0.05 % injected Dose/gram
- Uptake [1, 11]: 0.01 ± 0 % injected Dose/gram
- Uptake [1, 12]: 0.005 ± 0.006 % injected Dose/gram
- Uptake ([1]; Spleen, 1 h after dosing): 0.06 ± 0.041 % injected Dose/gram
- Uptake ([1]; Spleen, 2 h after dosing): 0.053 ± 0.005 % injected Dose/gram
- Uptake ([1]; Spleen, 4 h after dosing): 0.025 ± 0.01 % injected Dose/gram
- Uptake ([1]; Spleen, 24 h after dosing): 0.023 ± 0.005 % injected Dose/gram
- Uptake ([1]; Spleen, 48 h after dosing): 0.01 ± 0.012 % injected Dose/gram
- Uptake ([1]; Stomach, 1 h after dosing): 0.06 ± 0.055 % injected Dose/gram
- Uptake ([1]; Stomach, 2 h after dosing): 0.2 ± 0.071 % injected Dose/gram
- Uptake ([1]; Stomach, 4 h after dosing): 0.045 ± 0.017 % injected Dose/gram
- Uptake ([1]; Stomach, 24 h after dosing): 0.01 ± 0 % injected Dose/gram
- Uptake ([1]; Stomach, 48 h after dosing): 0.013 ± 0.013 % injected Dose/gram
- Uptake ([1]; Tail, 1 h after dosing): 0.245 ± 0.179 % injected Dose/gram
- Uptake ([1]; Tail, 2 h after dosing): 0.183 ± 0.056 % injected Dose/gram
- Uptake ([1]; Tail, 4 h after dosing): 0.118 ± 0.041 % injected Dose/gram
- Uptake ([1]; Tail, 24 h after dosing): 0.065 ± 0.044 % injected Dose/gram
- Uptake ([1]; Tail, 48 h after dosing): 0.01 ± 0.008 % injected Dose/gram
- Clearance (time course of activity in vital tissues and blood) [1]: cleared at similar rates
Compound: BnDOTA[^177Lu] [[^177Lu]-Compound 2, reference compound]

From patent US12533428B2, “Multimodal fluorine-CY3/5/7-DOTA-hapten compositions, diagnostics, fluorescence guided surgery and radioimmunotherapy” (Memorial Sloan Kettering Cancer Center, priority 2019, dated 2026)
